Test results as given in patent US20040229785A1, “Screening methods to identify treatments for autoimmune disease” (priority 2002, published 2004).
“And” between values parts separate entries of the source, which are not always exact repeats. Identical values can stand only once.

What was measured:
[1] = system: PBLs from Type I diabetics; test: FACS Annexin V binding/PI uptake in human PBLs cultured with or without TNF-α; format: cell-based; design: increase in Annexin V binding to CD3+ PBLs in response to TNF-α: dose or concentration left out as unconfirmed
Protocol: Therefore, Annexin V binding/PI uptake measurements were used to measure specific cellular lineages in the human PBLs based on fluorescence activated cell scanning (FACS) analysis. PBLs were stained with anti-CD3, anti-Annexin V, and anti-PI antibodies immediately after isolation. After 12 or 24 hours in culture in the presence or absence of TNF-α, cells were analyzed by FACS for Annexin V/PI binding to defined lineages. Over the course of these studies several important differences emerged in the behavior of human PBLs compared to NOD splenocytes (Table 1). First, human PBL isolates contained a large amount of cell fragments and debris, both at baseline and after culture. This finding was not evident in the NOD splenocyte preparations. Comparing the responses of non-diabetic C57BL/6 murine splenocytes to non-diabetic humans PBLs, the viability of C57BL/6 splenocytes remained constant during a 24 hour period of culture in vitro, whereas a progressive increase in spontaneous cell death of human PBLs was regularly observed over this interval. This differential response of cell viability to culture in vitro may possibly reflect an intrinsic fragility of human PBLs and/or the greater rigors of cell isolation required for purification of human PBLs as compared with murine splenocytes. […] Another difference between PBLs from human Type I diabetics and NOD splenocytes is that the evolution of TNF-α-induced apoptosis in NOD splenocytes occurs with a predictable time course that is much more rapid than that seen in PBLs from Type I diabetics. […] By 24 hours, there was little further increase in the fraction of cells binding Annexin V. However, nuclear binding of PI to NOD splenocytes had increased substantially reflecting a further progression of the apoptotic program. By contrast, cell death in response to TNF-α in human CD3 positive-PBLs, when evident, evolved much more slowly. For example, increased Annexin V binding was rarely seen after 12 hours and at 24 hours, increased Annexin V uptake, when present, was generally not accompanied by increased PI uptake.
The results generated using CD3, CD19, and CD11b positive PBLs isolated from 33 Type I diabetics and from control subjects (see Table 1) support the following conclusions. […] In these studies, PBLs were processed in parallel from a Type I diabetic and an age/sex matched control non-diabetic subject. Immediately after isolation, the PBLs were incubated with Annexin V and propidium iodide and subjected to FACS analysis (left column of flow charts; “before incubation”). […] The cells were then incubated in the absence (center panels) or presence (right panels) of TNF-α (20 ng/mL). After 12 hours, these cells were stained with Annexin V and PI and analyzed by FACS.

[2] = system: B6 (C57BL/6) splenocytes; test: Annexin V/PI flow cytometry of cultured splenocytes with and without TNF-α; format: cell-based, mouse
Protocol: (§1) Flow cytometry can be performed using a Facscalibur flow cytometer (BD Biosciences, San Jose, Calif.). Samples were incubated for 18-24 hours in the absence or presence of TNF-α (20-50 ng/mL), after which apoptotis can be determined by direct detection using FITC-conjugated annexin V and Propidium Iodide (PI) from R&D Systems (TACS Annexin V-FITC Apoptosis Detection Kit; Minneapolis, Minn.). Early apoptotic cells were defined as positive for annexin V only, whereas late apoptotic cells were defined as being positive for both PI and annexin V.
(§2) In order to obtain high viability for those assays using splenocytes, gentle treatment throughout the isolation procedure is important. Optimized results were obtained as follows: a mouse is sacrificed by cervical dislocation and the spleen removed via an abdominal incision. The spleen is then gently inflated with several mLs of RPMI/10% FBS using a 22 gauge needle. Any fluid leaking out of the spleen is collected as it contains splenocytes. A small opening is created on one end of the spleen and the splenic tissue expelled through this opening with a “scraping” motion using blunt tipped forceps. The resulting clumps of tissue are homogenized by repeated gentle pipetting. The crude splenocyte preparation is then filtered through a 40 micron mesh filter.
(§3) The spleen contains a variety of different immune cells. These can be distinguished further into T-cells (mostly CD4 and CD8) and non-T-cells (mostly B-cells and macrophages). Magnetic separation methods were used to sort the splenocytes into T-cell and non-T-cell fractions. For the isolation of T-cells, Miltenyi Biotec's Pan T magnetic bead cocktail were used. This cocktail contains antibodies against CD11b, CD45R, DX5, and Ter-119. As a result, all Non-T cells, i.e. B cells, NK cells, dendritic cells, macrophages, granulocytes, and erythroid cells; are depleted from the sample, leaving only T-cells. For the isolation of non-T-cells, a mixture of magnetic beads directed against CD90 and Ter-119 were used. This depletes all T-cells and erythroid cells, leaving only the non-T cells.
(§4) The difference in sensitivity between B6 and NOD splenocytes to TNF-α was then examined. B6 and NOD splenocytes were plated out in U-bottom shaped 96 well plates at a density of 25,000 cells per well in 100 μL of medium, with and without 50 ng/mL TNF-α added. The cells were cultured for 24 hrs, stained with Annexin V and PI, and analyzed by flow cytometry (FIG. 10).
(§5) After culture at 37° C. for 26 hours, the cell death of NOD vs. B6 T cells and NOD vs. B6 non T cells was quantified by AnnexinV and PI (FIG. 11). Late death is shown for cells obtained from a single NOD and a single B6 mouse.
(§6) Samples obtained from a single NOD and a single B6 mouse were also examined for cell death by PI staining alone (FIG. 12) after culturing at 32° C. for 18 hours.
(§7) Therefore, Annexin V binding/PI uptake measurements were used to measure specific cellular lineages in the human PBLs based on fluorescence activated cell scanning (FACS) analysis. PBLs were stained with anti-CD3, anti-Annexin V, and anti-PI antibodies immediately after isolation. After 12 or 24 hours in culture in the presence or absence of TNF-α, cells were analyzed by FACS for Annexin V/PI binding to defined lineages. Over the course of these studies several important differences emerged in the behavior of human PBLs compared to NOD splenocytes (Table 1). First, human PBL isolates contained a large amount of cell fragments and debris, both at baseline and after culture. This finding was not evident in the NOD splenocyte preparations. Comparing the responses of non-diabetic C57BL/6 murine splenocytes to non-diabetic humans PBLs, the viability of C57BL/6 splenocytes remained constant during a 24 hour period of culture in vitro, whereas a progressive increase in spontaneous cell death of human PBLs was regularly observed over this interval. […]

[3] = system: NOD splenocytes; test: as above; format: cell-based, mouse; details: for TNF sensitivity of T cell subpopulation: FIG. 13
Protocol: as §1, §2, §3, §4, §5, §6, §7

[4] = system: PBLs from non-diabetic control subjects; test: FACS Annexin V binding/PI uptake in human PBLs cultured with or without TNF-α; format: cell-based
Protocol: as §7
The results generated using CD3, CD19, and CD11b positive PBLs isolated from 33 Type I diabetics and from control subjects (see Table 1) support the following conclusions. […] After 12 hours, these cells were stained with Annexin V and PI and analyzed by FACS.

[5] = system: B6 mouse splenocytes (T cells, non-T cells)
Protocol: (§12) Following is an optimized protocol for the automated analysis of cell sensitivity to compounds that induce cell death via apoptosis or necrosis.
(§13) Place on AutoMACS cell sorter for CD-subset separation (magnetic bead separation method or direct RBC lysis)
(§14) Pipette 100 μL cell suspension (25,000 cells) into each 96-well plate well, ×3 for triplicates
(§15) Add 5 μL of reagent (e.g., TNF-α, another induced or cell death, or mixtures containing up to 10 different chemical reagent combinations for the induction of cell death), to each well to be treated, ×3 for triplicates.
(§16) For flow cytometry (analysis), remove 90 μL of re-suspended sample material from each sample well
(§17) Add 90 μl of cell stain solution to each sample flow test tube above to stain cells for identification
(§18) The sensitivity of T cell populations from NOD mice were re-examined using the automated assay described above.
(§19) Non-T cells from NOD and B6 mice were also examined for sensitivity to TNF-α-induced cell death.

[6] = system: CD3+ T cells from a patient with Type I diabetes; format: cell-based, human
From the text: (§8) II. Remove red blood cells and collect lymphocyte subsets:
(§9) 11. Acquire timed and/or absolute count/volume data
(§10) The automated method described herein has also been used for the assay of cell viability in a human patient. Blood samples were obtained from a patient with Type I diabetes and from a non-diabetic control subject. During the assay procedure, a CD3^+ T cell subset was isolated from each (Step 11.12 from the protocol). The cells were then contacted with TNF-α and cell viability was measured and compared to that found in control samples which were not contacted with TNF-α.

[7] = system: CD3+ T cells from a non-diabetic control subject; format: cell-based, human
From the text: as §8, §9, §10

[8] = system: PBLs from Type I diabetics; test: Trypan Blue uptake by human PBLs incubated with TNF-α; format: cell-based; details: TNF-α 20 ng/mL, 24 hours, FIG. 14A
Protocol: (§11) In an initial set of assays for characterizing the response of PBLs from human diabetics and control subjects to incubation with TNF-α or other candidate compounds in vitro, uptake of the dye Trypan Blue, a relatively nonspecific measure of cell death, was used. […] However, there appeared to be an inverse correlation between the age-at-onset and the extent of the TNF-α induced-increase in Trypan Blue uptake by the PBLs (FIG. 14C).

[9] = system: PBLs from non-diabetic subjects; test: as above; format: cell-based; details: TNF-α 20 ng/mL, 24 hours, FIG. 14B
Protocol: as §11

[10] = system: NOD mouse splenocytes (T cells, non-T cells)
Protocol: as §12, §13, §14, §15, §16, §17, §18, §19

TNF-α
staining by Annexin V+PI+ ([1]; PBLs from a diabetic patient vs matched control, TNF-α 20 ng/mL, 12 hours, FIGS. 15A, 15B): increased significantly and selectively | Annexin V staining after culture in the presence of TNF-α ([1]; PBLs of two Type I diabetic subjects (FIGS. 15A, 15B), TNF-α 20 ng/mL, 12 hours, without TNF-α 6.5% and 6.2%): 11.3% and 13.4% | increase in Annexin V binding to CD3+ PBLs in response to TNF-α ([1]; Type I diabetic vs non-diabetic PBLs, 24 hours, TNF-α): greater to a statistically significant extent | After culture with THF-α (Mean % cell death ± SE) ([1]; human IDDM patients, overnight early T-cell death, n=33 pairs): 8.73 ± 0.96% | cell death of T cells by PI staining alone on exposure to TNF-α ([2]; B6 T cells, 32° C., 18 hours, single mouse, FIG. 12): do not exhibit TNF induced death | late cell death of T cells by AnnexinV and PI on exposure to TNF-α ([2]; B6 T cells, 37° C., 26 hours, single mouse, FIG. 11): increased viability | After culture with THF-α (Mean % cell death ± SE) ([2]; C57BL/6 mouse, overnight early T-cell death, n=7 pairs): 10.2 ± 2.5% | TNF sensitivity of T cell subpopulation ([3]; NOD CD4+ T cells): not TNF sensitive | TNF sensitivity of T cell subpopulation ([3]; NOD CD8+ T cells): greatest TNF sensitivity | cell death of T cells by PI staining alone on exposure to TNF-α ([3]; NOD T cells, 32° C., 18 hours, single mouse, FIG. 12): death of a subpopulation of T cells | late cell death of T cells by AnnexinV and PI on exposure to TNF-α ([3]; NOD T cells, 37° C., 26 hours, single mouse, FIG. 11): further accelerated | After culture with THF-α (Mean % cell death ± SE) ([3]; NOD mouse, overnight early T-cell death, n=5 pairs): 32.9 ± 3.97% | Annexin V binding ([3]; NOD splenocytes, 12-hour incubation with TNF-α): clear increase in Annexin V binding | sensitivity of splenocytes to TNF-α (viability, Annexin V/PI) ([3]; NOD vs B6 control splenocytes, 50 ng/mL TNF-α, 24 hrs, 25,000 cells per well, FIG. 10): much more sensitive | Annexin V staining after culture in the presence of TNF-α ([4]; PBLs of two parallel non-diabetic control subjects, TNF-α 20 ng/mL, 12 hours, without TNF-α 5.0 and 9.0%): 5.5% and 7.5% | After culture with THF-α (Mean % cell death ± SE) ([4]; human random controls, overnight early T-cell death, n printed 3): 8.02 ± 0.85% | viability of splenocytes treated with TNF-α [5]: 69.7% | viability change of non-T cells, TNF-α treated vs untreated ([5]; B6 mice non-T cells, n=12, FIG. 18B): 5.0% | change in splenocyte viability on TNF-α treatment (increase) ([5]; control B6 mice, n=17, T cell populations, FIG. 16): 1.0+/−0.5 | Viability (%) [6]: 93% | Death (%) ([6]; Type I diabetic, CD3+ cells, TNF-α +, without TNF-α 5): 7% | Total Cell Count ([6]; Type I diabetic, CD3+ cells, TNF-α +, without TNF-α 1900): 1900 | Viability (%) [7]: 96% | Death (%) ([7]; Control subject, CD3+ cells, TNF-α +, without TNF-α 5): 4% | Total Cell Count ([7]; Control subject, CD3+ cells, TNF-α +, without TNF-α 2000): 2200 | extent of Trypan Blue uptake [8]: further increasing Trypan Blue uptake | extent of Trypan Blue uptake [9]: did not significantly alter | change in splenocyte viability on TNF-α treatment (decrease) ([10]; NOD diabetic mice, n=17, T cell populations, FIG. 16): −2.7+/−0.9 | viability change of non-T cells, TNF-α treated vs untreated ([10]; NOD mice non-T cells, n=12, FIG. 18B): 4.6%
